Values after ≈ are worked out from the molar mass of the structure shown. Values joined by “and” are separate entries in the source; they are usually repeats but may differ in a detail not shown here. Equal entries are not always repeated. Where two headings read alike, the source gives them in different places.
Legend:
[1] = test system: Raji-clone #18 (null CD5 expression); test: In vitro cytotoxicity, MTT assay, 72 h dose-response; format: cell-based; details: Homo sapiens, C#18 (null CD5)
Procedure: (§5) Briefly, MTT solution was added to the cell cultures at a final concentration of 0.5 mg/mL, and incubated for 1 to 4 hours at 37° C. until formazan crystals are formed. Culture medium is carefully removed from the cell cultures and formazan crystals resuspended in 100 μl DMSO. […] Cell survival was expressed as percentage of control, untreated cell survival.

[2] = test system: NB4, U937, Raji and RPMI-8226 cells; test: In vitro cytotoxicity, whole CD13 cell panel; details: for IC50: Homo sapiens
From the text: (§1) All tumor cell lines used in this study were obtained from the American Type Culture Collection (ATCC), unless otherwise indicated; BT-474 (ATCC HTB-20, Breast Ductal Carcinoma), SK-BR-3 (ATCC HTB-30, Breast Adenocarcinoma) and HCC-1954 (ATCC CRL-2338, Breast Ductal Carcinoma), all HER2+; MDA-MB-231 (ATCC HTB-26, Breast Adenocarcinoma) and MCF-7 (ATCC HTB-22 Breast Adenocarcinoma, pleural effusion), all HER2-; SK-OV-3 (ATCC HTB-77, Ovary Adenocarcinoma), HER2+; NB-4 (Acute Promyelocytic Leukemia, APL, CD13+, M. Lanotte et al. (1991) NB4, a maturation inducible cell line with t(15;17) marker isolated from a human acute promyelocytic leukemia (M3). Blood 77, 1080-1086), (CD13+) and U937 (ATCC CRL-1 593.2, Histiocytic Lymphoma, CD13+ and CD4+); Raji (ATCC CCL-86, Burkitt's Lymphoma) (CD13−, CD20+, CD5−, and CD4−); RPMI-8226 (ATCC CRM-CCL-155, Multiple Myeloma) (CD13−, CD20−, CD5− and CD4−); Karpas-299 (DSMZ ACC-31, Non-Hodgkin's Lymphoma) (CD20−, CD5+, and CD4+); MOLT-4 (ATCC CRL-1 582, Acute Lymphoblastic Leukemia, CD5+). In addition, the two Raji cell (ATCC CCL-86, Burkitt's Lymphoma) clones used in this study Raji-clone #10 (high CD5 expression) and Raji-clone18 (null CD5 expression), were provided by Dr. Juan M. Zapata (Instituto de Investigaciones Biomedicas “Alberto Sols”, CSIC-UAM, Madrid, Spain). Cells were maintained at 37° C., 5% CO 2 and 95% humidity in Dulbecco's Modified Eagle's Medium (DMEM) (for MCF and MDA-MB-231 cells), RPMI-1640 (for SK-BR-3, HCC-1954, NB-4, U937, Raji, RPMI-8226, Karpas-299, MOLT-4, Raji-clone #10 and Raji-clone #18 cells), RPMI-1640+1% ITS (for BT-474 cells) or McCOyS (for SK-OV-3 cells), all media supplemented with 10% Fetal Calf Serum (FCS) and 100 units/mL penicillin and streptomycin.
(§2) For suspension cells: A standard metabolic assay using MTT (3-(4,5-Dimethylthiazol-2-yl)-2,5-diphenyltetrazolium bromide) was adapted for quantitative measurement of cell growth and cytotoxicity, as described in T. Mosmann (1983) Rapid colorimetric assay for cellular growth and survival: Application to proliferation and cytotoxicity assays. J. Immunol. Meth., 65, 55-63. Briefly, MTT solution was added to the cell cultures at a final concentration of 0.5 mg/mL, and incubated for 1 to 4 hours at 37° C. until formazan crystals are formed. Culture medium is carefully removed from the cell cultures and formazan crystals resuspended in 100 μl DMSO. After mixing to assure solubilization, the quantity of formazan (presumably directly proportional to the number of viable cells) is measured by recording changes in absorbance at 570 nm using a plate reading spectrophotometer. Cell survival was expressed as percentage of control, untreated cell survival.
(§3) The IC50 value refers to the concentration of compound inducing a 50% of cell death as compared to the control cell survival.
The in vitro cytotoxic activity of ADC9 along with the parent cytotoxic Compounds 1 and 4, was evaluated against different human tumor cell lines expressing or not the CD13 receptor, including NB4 and U937 (CD13 positive cells) and Raji and RPMI-8226 (CD13 negative cells). Standard dose-response (DR) curves for 72 hours were performed.

[3] = test system: HCC-1954, SK-BR-3, MDA-MB-231 and MCF-7 cells; test: In vitro cytotoxicity, whole breast cancer cell panel; details: for IC50: Homo sapiens
From the text: as §1
For adherent cells: A colorimetric assay using sulforhodamine B (SRB) was adapted for quantitative measurement of cell growth and cytotoxicity, as described in V. Vichai and K. Kirtikara (2006) Sulforhodamine B colorimetric assay for cytotoxicity screening. Nature Protocols, 1, 1112-1 116. Briefly, cells were seeded in 96-well microtiter plates and allowed to stand for 24 hours in drug-free medium before treatment with vehicle alone or the indicated compounds for 72 hours. For quantification, cells were washed twice with phosphate buffered saline (PBS), fixed for 15 min in 1% glutaraldehyde solution, rinsed twice with PBS, stained in 0.4% SRB-1% acetic acid solution for 30 min, rinsed several times with 1% acetic acid solution and air-dried. SRB was then extracted in 10 mM trizma base solution and the optical density measured at 490 nm in a microplate spectrophotometer. Cell survival was expressed as percentage of control, untreated cell survival.
as §3
Standard dose-response (DR) curves for 72 hours were performed.

HCC-1954 cells = test: In vitro cytotoxicity, SRB assay, 72 h dose-response; format: cell-based; details: Homo sapiens, HCC1954, 72 h, HER2+; 72 h; read-out: IC50
From the text: (§4) Nature Protocols, 1, 1112-1 116.

MCF-7 cells = test: as above; format: cell-based; details: Homo sapiens, MCF7, 72 h, HER2−; 72 h; read-out: IC50
From the text: as §4

MDA-MB-231 cells = test: as above; format: cell-based; details: Homo sapiens, MDA-MB-231, 72 h, HER2−; 72 h; read-out: IC50
From the text: as §4

SK-BR-3 cells = test: as above; format: cell-based; details: Homo sapiens, SK-BR-3, 72 h, HER2+; 72 h; read-out: IC50
From the text: All tumor cell lines used in this study were obtained from the American Type Culture Collection (ATCC), unless otherwise indicated; BT-474 (ATCC HTB-20, Breast Ductal Carcinoma), SK-BR-3 (ATCC HTB-30, Breast Adenocarcinoma) and HCC-1954 (ATCC CRL-2338, Breast Ductal Carcinoma), all HER2+; MDA-MB-231 (ATCC HTB-26, Breast Adenocarcinoma) and MCF-7 (ATCC HTB-22 Breast Adenocarcinoma, pleural effusion), all HER2-; SK-OV-3 (ATCC HTB-77, Ovary Adenocarcinoma), HER2+; NB-4 (Acute Promyelocytic Leukemia, APL, CD13+, M. Lanotte et al. (1991) NB4, a maturation inducible cell line with t(15;17) marker isolated from a human acute promyelocytic leukemia (M3). […] Cells were maintained at 37° C., 5% CO 2 and 95% humidity in Dulbecco's Modified Eagle's Medium (DMEM) (for MCF and MDA-MB-231 cells), RPMI-1640 (for SK-BR-3, HCC-1954, NB-4, U937, Raji, RPMI-8226, Karpas-299, MOLT-4, Raji-clone #10 and Raji-clone #18 cells), RPMI-1640+1% ITS (for BT-474 cells) or McCOyS (for SK-OV-3 cells), all media supplemented with 10% Fetal Calf Serum (FCS) and 100 units/mL penicillin and streptomycin.
For adherent cells: A colorimetric assay using sulforhodamine B (SRB) was adapted for quantitative measurement of cell growth and cytotoxicity, as described in V. Vichai and K. Kirtikara (2006) Sulforhodamine B colorimetric assay for cytotoxicity screening. […] Briefly, cells were seeded in 96-well microtiter plates and allowed to stand for 24 hours in drug-free medium before treatment with vehicle alone or the indicated compounds for 72 hours. For quantification, cells were washed twice with phosphate buffered saline (PBS), fixed for 15 min in 1% glutaraldehyde solution, rinsed twice with PBS, stained in 0.4% SRB-1% acetic acid solution for 30 min, rinsed several times with 1% acetic acid solution and air-dried. SRB was then extracted in 10 mM trizma base solution and the optical density measured at 490 nm in a microplate spectrophotometer. Cell survival was expressed as percentage of control, untreated cell survival.

[4] = test system: Karpas-299, U937, Raji and RPMI-8226 cells; test: In vitro cytotoxicity, whole CD4 cell panel; details: for IC50: Homo sapiens
From the text: as §1, §2, §3
The in vitro cytotoxic activity of ADC16 along with the parent cytotoxic Compounds 1, 4, and 40, was evaluated against different human cancer cell lines expressing or not the CD4 antigen, including Karpas-299 and U937 (both CD4+); Raji and RPMI-8226 (both CD4−). Standard dose-response (DR) curves for 72 hours were performed.

NB-4 cells = test: In vitro cytotoxicity, MTT assay, 72 h dose-response; format: cell-based; details: Homo sapiens, CD13+
Procedure: as §5

[5] = test system: Raji-clone #10 (high CD5 expression); test: as above; format: cell-based; details: Homo sapiens
Procedure: as §5

[6] = test system: Raji, RPMI-8226 and Karpas-299 cells; test: In vitro cytotoxicity, whole CD20 cell panel; details: Homo sapiens
From the text: as §1, §2, §3
The in vitro cytotoxic activity of ADC12 along with the parent cytotoxic Compounds 1, 4, and 40, was evaluated was assayed against different human cancer cell lines expressing or not the CD20 antigen, including Raji (CD20 positive cells); RPMI-8226 and Karpas-299 (CD20 negative cells). Standard dose-response (DR) curves for 72 hours were performed.

U937 cells = test: In vitro cytotoxicity, MTT assay, 72 h dose-response; format: cell-based, human; details: Homo sapiens, U-937, 72 h, CD13+, CD4+, read-out: IC50
Procedure: as §5

RPMI-8226 cells = test: as above; format: cell-based, human; details: Homo sapiens, RPMI-8226, 72 h, CD13−, CD20−, CD5−, CD4−, read-out: IC50
Procedure: as §5

Raji cells = test: as above; format: cell-based, human; details: Homo sapiens, Raji, CD13−, CD20+, CD5−, CD4−, read-out: IC50
Procedure: as §5

[7] = read-out: IC50 values across the different cell lines tested (range)
[8] = read-out: mean IC50 value across the whole cell panel
[9] = read-out: IC50 values along the different cell lines tested (range), four breast cell lines
[10] = read-out: mean IC50 value across the whole cell panel, four breast cell lines
[11] = long maleimide containing linker

Row | SMILES | IC50 [2, 7] | IC50 [2, 8] | IC50 [3, 9] | IC50 [3, 10] | IC50 (HCC-1954 cells) | IC50 (MCF-7 cells) | IC50 (MDA-MB-231 cells) | IC50 (SK-BR-3 cells) | IC50 (NB-4 cells) | also measured
1 | COC1=CC[C@@H]([C@@H](C)/C=C(C)/C=C\C=C/C(=O)N[C@H](C(=O)N/C=C\C[C@H](C/C=C(\C)Cl)OC(=O)NCCCNC(=O)OCc2ccc(NC(=O)[C@H](CCCNC(N)=O)NC(=O)[C@@H](NC(=O)CCCCCN3C(=O)C=CC3=O)C(C)C)cc2)C(C)(C)C)OC1=O [Compound 12] | 0.0044 µg/mL to 0.048 µg/mL and 3.5 nM to 38 nM | 0.02 µg/mL and 16 nM | 0.0076 µg/mL to 0.0305 µg/mL and 6.02 nM to 24.2 nM | 0.0163 µg/mL and 12.9 nM | 0.0076 µg/mL and 6.02 nM | 0.0305 µg/mL and 24.2 nM | 0.018 µg/mL and 14.3 nM | 0.00905 µg/mL and 7.18 nM | 0.00445 µg/mL and 3.53 nM | IC20 [1]: 0.2 µg/mL and 159 nM; IC50 [1]: > 792 nM and > 1 µg/mL; decrease of cytotoxic activity as compared to Compound 4 ([2]; long linker): ~1 log; IC50 [4, 7]: 0.073 µg/mL to 0.41 µg/mL and 58 nM to 320 nM; IC50 [4, 8]: 0.17 µg/mL and 130 nM; reduction of cytotoxic activity as compared to Compound 4 [4, 11]: ~2 log; reduction of cytotoxic activity as compared to Compound 40 [4, 11]: ~3 log; IC20 ([5]; C#10 (high CD5)): 0.15 µg/mL and 119 nM; IC50 ([5]; C#10 (high CD5)): 0.27 µg/mL and 214 nM; IC50 ([5]; clone #10, CD5 expressing): 215 nM; IC50 [6, 7]: 0.022 µg/mL to 0.067 µg/mL and 18 nM to 55 nM; IC50 [6, 8]: 0.039 µg/mL and 31 nM
2 | COC1=CC[C@@H]([C@@H](C)/C=C(C)/C=C\C=C/C(=O)N[C@H](C(=O)N/C=C\C[C@H](C/C=C(\C)Cl)OC(=O)NCCCNC(=O)CCS)C(C)(C)C)OC1=O [Compound 13] | 0.0017 µg/mL to 0.01 µg/mL and 2.7 nM to 14 nM | 0.0043 µg/mL and 5.7 nM | 0.795 to 2.63 ng/mL (≈ 1.06 to 3.5 nM) | 0.00183 µg/mL and 2.44 nM | 0.00149 µg/mL and 1.98 nM | 0.00243 µg/mL and 3.23 nM | 0.00263 µg/mL and 3.5 nM | 0.000795 µg/mL and 1.06 nM | 0.0017 µg/mL and 2.26 nM | reduction of cytotoxic activity as compared to Compound 40 ([2]; thiol containing tail): less than 1 log; decrease of cytotoxic activity as compared to Compound 4 ([3]; thiol containing tail): about 5 fold; IC50 (U937 cells): 0.00285 µg/mL and 3.8 nM; IC50 (RPMI-8226 cells): 0.0023 µg/mL and 3.06 nM; IC50 (Raji cells): 0.0103 µg/mL and 13.7 nM
